7 compounds from patent publication US20240270762A1, “PENICILLIN-BINDING PROTEIN INHIBITORS” (priority 2021, published 2024) can be followed below.

Test [1] has as its target T1, PBP2 from Neisseria gonorrhoeae (FA19) (Neisseria gonorrhoeae, UniProt P08149).
T1 construct: made in house
The test is described as follows: Bocillin-FL fluorescence polarization competition binding, N. gonorrhoeae PBP2. The conditions noted are these: fluorescence polarization competition binding assay using Bocillin-FL, read-out: N. gonorrhoeae PBP2 Potency. The procedure, abridged:
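Fluorescence polarization competition with 0.1 μM Bocillin-FL (fluorescent penicillin V) against 0.25 μM N. gonorrhoeae FA19 PBP2 in 50 mM Hepes pH 8.0, 300 mM NaCl, 10% glycerol. Boronic acid inhibitors were preincubated with PBP, then Bocillin-FL was added and FP read (490/520 nm) up to 60 min. EC50 is the concentration halving PBP-bound Bocillin-FL.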
In general terms: Fluorescence polarisation rises when a labelled molecule tumbles more slowly, as on binding a larger partner.

For the next test, the system named is E. coli ATCC 25922. The test is described as follows: microbe, parasite or virus in culture. The test is classed as cell-based. The following applies: Escherichia coli, ATCC25922, read-out: MIC E. coli 25922.
The next test deals with E. coli AG100. As to the kind of experiment: microbe, parasite or virus in culture. The following applies: Escherichia coli, AG100, read-out: MIC E. coli AG100. It is filed as cell-based.
A further test relates to E. coli 901C. As to the kind of experiment: microbe, parasite or virus in culture. It is filed as cell-based. The following applies: Escherichia coli, read-out: MIC E. coli 901C.
Another test has as its system E. coli D22. As to the kind of experiment: microbe, parasite or virus in culture. The conditions noted are these: Escherichia coli, D22, read-out: MIC E. coli D22. It is filed as cell-based.
For another test, the system named is E. coli AG100A. The test is described as follows: Broth microdilution MIC in CAMHB. The test is classed as cell-based. The following applies: Escherichia coli, read-out: MIC E. coli AG100A. (In general: In broth dilution the organism is exposed to a series of concentrations in liquid medium.)
The next test has as its system K. pneumoniae 848844. The test is described as follows: microbe, parasite or virus in culture. It is filed as cell-based. The following applies: Klebsiella pneumoniae, 848844, read-out: MIC K. pneumoniae 848844.
Another test has as its system K. pneumoniae UMM. The test is described as follows: microbe, parasite or virus in culture. It is filed as cell-based. The following applies: Klebsiella pneumoniae, read-out: MIC K. pneumoniae UMM.
In another test the test system is K. pneumoniae SI-117. The test is described as follows: microbe, parasite or virus in culture. It is filed as cell-based. The following applies: Klebsiella pneumoniae, SI117, read-out: MIC K. pneumoniae SI-117.
In another test the test system is P. aeruginosa ATCC 27853. The test is described as follows: microbe, parasite or virus in culture. It is filed as cell-based. The conditions noted are these: Pseudomonas aeruginosa, ATCC27853, read-out: MIC P. aeruginosa ATCC 27853.
The test system of a further test is A. baumannii ATCC 19606. As to the kind of experiment: microbe, parasite or virus in culture. The conditions noted are these: Acinetobacter baumannii, ATCC19606, read-out: MIC, A. baumannii ATCC 19606. The test is classed as cell-based.
The test system of a further test is P. aeruginosa ATCC 35151. As to the kind of experiment: microbe, parasite or virus in culture. The test is classed as cell-based. The following applies: Pseudomonas aeruginosa, ATCC35151, read-out: MIC P. aeruginosa ATCC 35151.
For test [2], the system named is P. aeruginosa (ΔmexAB-oprM). As to the kind of experiment: Broth microdilution MIC in CAMHB. The conditions noted are these: Pseudomonas aeruginosa; read-out: MIC P. aeruginosa ΔmexAB-oprM. It is filed as cell-based.
Another test has as its system B. pseudomallei Bp82. As to the kind of experiment: microbe, parasite or virus in culture. The test is classed as cell-based. The following applies: Burkholderia pseudomallei, BP82, read-out: Minimum inhibitory concentration, B. pseudomallei Bp82.

≈ marks a conversion by molar mass, not a printed value. A value given as a limit tells only on which side of the number the result lay.

T1 sequence (P08149 whole entry): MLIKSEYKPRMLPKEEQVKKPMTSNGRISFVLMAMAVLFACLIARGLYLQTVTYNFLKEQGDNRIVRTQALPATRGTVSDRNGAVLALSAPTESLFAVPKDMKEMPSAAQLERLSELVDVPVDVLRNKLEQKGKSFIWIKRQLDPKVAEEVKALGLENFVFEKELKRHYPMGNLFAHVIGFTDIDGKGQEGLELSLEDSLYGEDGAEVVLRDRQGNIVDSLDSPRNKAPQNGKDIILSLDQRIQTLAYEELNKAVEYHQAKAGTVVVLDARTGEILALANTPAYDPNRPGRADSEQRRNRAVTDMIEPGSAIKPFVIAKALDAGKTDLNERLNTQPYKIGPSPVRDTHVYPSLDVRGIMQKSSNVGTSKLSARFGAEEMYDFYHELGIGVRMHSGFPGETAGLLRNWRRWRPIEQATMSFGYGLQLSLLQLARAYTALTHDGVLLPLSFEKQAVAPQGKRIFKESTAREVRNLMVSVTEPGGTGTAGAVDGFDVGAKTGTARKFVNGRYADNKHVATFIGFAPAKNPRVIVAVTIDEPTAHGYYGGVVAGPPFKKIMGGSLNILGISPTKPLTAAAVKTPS

`CS(=O)(=O)N1CCN(C(=O)N[C@H](C(=O)N[C@H]2Cc3cccc(C(=O)O)c3OB2O)c2ccc(P(=O)(O)O)cc2)C1=O` (single isomer, unassigned) [Example 5]: the EC50 in [1] is < 10 µM. The MIC in the test on E. coli ATCC 25922 is > 128 µg/mL; with E. coli AG100 it was 32 to 64 µg/mL (≈ 52.4 to 105 µM); in the test on E. coli 901C, < 1 µg/mL; in the test on E. coli D22 it was 8 to 16 µg/mL (≈ 13.1 to 26.2 µM); in the test on E. coli AG100A, 32 to 64 µg/mL (≈ 52.4 to 105 µM); in the test with K. pneumoniae 848844, > 128 µg/mL. The MIC in the test with K. pneumoniae UMM is > 128 µg/mL; in the test with K. pneumoniae SI-117, > 128 µg/mL; in the test on P. aeruginosa ATCC 27853 it was > 128 µg/mL; in the test with A. baumannii ATCC 19606, > 128 µg/mL; with P. aeruginosa ATCC 35151 it was 8 to 16 µg/mL (≈ 13.1 to 26.2 µM); in test [2], 32 to 64 µg/mL (≈ 52.4 to 105 µM).
With `NCCN1CCN(C(=O)NC(C(=O)N[C@H]2Cc3cccc(C(=O)O)c3OB2O)c2ccc(P(=O)(O)O)cc2)C(=O)C1=O` (stereo partly drawn) [Example 3, (3R)-3-(2-(4-(2-aminoethyl)-2,3-dioxopiperazine-1-carboxamido)-2-(4-phosphonophenyl)acetamido)-2-hydroxy-3,4-dihydro-2H-benzo[e][1,2]oxaborinine-8-carboxylic acid], the EC50 in [1] is < 10 µM. In addition, the MIC with E. coli ATCC 25922 was 32 to 64 µg/mL (≈ 53 to 106 µM); in the test with E. coli AG100, 32 to 64 µg/mL (≈ 53 to 106 µM); in the test on E. coli 901C, 2 to 4 µg/mL (≈ 3.32 to 6.63 µM); with E. coli D22, 8 to 16 µg/mL (≈ 13.3 to 26.5 µM); in the test with E. coli AG100A it was 8 to 16 µg/mL (≈ 13.3 to 26.5 µM); in the test with K. pneumoniae 848844 it was > 128 µg/mL. For the same compound, the MIC is 32 to 64 µg/mL (≈ 53 to 106 µM) in the test with K. pneumoniae UMM; > 128 µg/mL with K. pneumoniae SI-117; > 128 µg/mL in the test on P. aeruginosa ATCC 27853; 32 to 64 µg/mL (≈ 53 to 106 µM) with A. baumannii ATCC 19606; < 1 µg/mL with P. aeruginosa ATCC 35151; 32 to 64 µg/mL (≈ 53 to 106 µM) in test [2].
With `CCN1CCN(C(=O)NC(C(=O)N[C@H]2Cc3cccc(C(=O)O)c3OB2O)c2cc(P(=O)(O)O)ccc2F)C(=O)C1=O` (stereo partly drawn) [Example 2, (3R)-3-(2-(4-ethyl-2,3-dioxopiperazine-1-carboxamido)-2-(2-fluoro-5-phosphonophenyl)acetamido)-2-hydroxy-3,4-dihydro-2H-benzo[e][1,2]oxaborinine-8-carboxylic acid], the EC50 in test [1] was < 10 µM. Also, the MIC in the test on E. coli ATCC 25922 is > 128 µg/mL; in the test on E. coli AG100, 32 to 64 µg/mL (≈ 52.8 to 106 µM); with E. coli 901C, < 1 µg/mL; in the test with E. coli D22 it was 2 to 4 µg/mL (≈ 3.3 to 6.6 µM); in the test with E. coli AG100A, 32 to 64 µg/mL (≈ 52.8 to 106 µM); in the test with K. pneumoniae 848844 it was > 128 µg/mL. The MIC is 32 to 64 µg/mL (≈ 52.8 to 106 µM) in the test on K. pneumoniae UMM; > 128 µg/mL in the test with K. pneumoniae SI-117; > 128 µg/mL in the test with P. aeruginosa ATCC 27853; > 128 µg/mL in the test with A. baumannii ATCC 19606; < 1 µg/mL in the test with P. aeruginosa ATCC 35151; 8 to 16 µg/mL (≈ 13.2 to 26.4 µM) in [2].
With `CCN1CCN(C(=O)NC(C(=O)N[C@H]2Cc3cccc(C(=O)O)c3OB2O)c2ccc(P(=O)(O)O)cc2F)C(=O)C1=O` (stereo partly drawn) [Example 1, (3R)-3-(2-(4-ethyl-2,3-dioxopiperazine-1-carboxamido)-2-(2-fluoro-4-phosphonophenyl)acetamido)-2-hydroxy-3,4-dihydro-2H-benzo[e][1,2]oxaborinine-8-carboxylic acid], in test [1], the EC50 is < 10 µM. Moreover, the MIC in the test on E. coli ATCC 25922 is > 128 µg/mL; with E. coli AG100, 32 to 64 µg/mL (≈ 52.8 to 106 µM); in the test with E. coli 901C, < 1 µg/mL; with E. coli D22 it was 2 to 4 µg/mL (≈ 3.3 to 6.6 µM); in the test with E. coli AG100A, 8 to 16 µg/mL (≈ 13.2 to 26.4 µM); in the test on K. pneumoniae 848844 it was > 128 µg/mL. The MIC with K. pneumoniae UMM is 32 to 64 µg/mL (≈ 52.8 to 106 µM); with K. pneumoniae SI-117, > 128 µg/mL; in the test with P. aeruginosa ATCC 27853, > 128 µg/mL; in the test with A. baumannii ATCC 19606, 32 to 64 µg/mL (≈ 52.8 to 106 µM); with P. aeruginosa ATCC 35151, < 1 µg/mL; in [2] it was 32 to 64 µg/mL (≈ 52.8 to 106 µM).
For the compound `O=C(NCCN1CCN(C(=O)N[C@@H](C(=O)N[C@H]2Cc3ccc(F)c(C(=O)O)c3OB2O)c2cc(F)c(O)c(O)c2Cl)C1=O)Nc1ccc(O)cc1` [Example 279, (R)-3-((R)-2-(2-chloro-5-fluoro-3,4-dihydroxyphenyl)-2-(3-(2-(3-(4-hydroxyphenyl)ureido)ethyl)-2-oxoimidazolidine-1-carboxamido)acetamido)-7-fluoro-2-hydroxy-3,4-dihydro-2H-benzo[e][1,2]oxaborinine-8-carboxylic acid], the MIC in the test with B. pseudomallei Bp82 was < 1 µg/mL.
Consider `CS(=O)(=O)N1CCN(C(=O)N[C@@H](C(=O)N[C@H]2Cc3cccc(C(=O)O)c3OB2O)c2ccc(P(=O)(O)O)cc2)C1=O` (single isomer, unassigned) [Example 6], for which the EC50 in [1] is < 10 µM. Moreover, the MIC with E. coli ATCC 25922 is 32 to 64 µg/mL (≈ 52.4 to 105 µM); in the test with E. coli AG100, 8 to 16 µg/mL (≈ 13.1 to 26.2 µM); in the test with E. coli 901C, < 1 µg/mL; in the test on E. coli D22, 2 to 4 µg/mL (≈ 3.28 to 6.55 µM); in the test on E. coli AG100A, 8 to 16 µg/mL (≈ 13.1 to 26.2 µM); in the test with K. pneumoniae 848844 it was > 128 µg/mL. Further, the MIC in the test with K. pneumoniae UMM was 32 to 64 µg/mL (≈ 52.4 to 105 µM); with K. pneumoniae SI-117 it was > 128 µg/mL; with P. aeruginosa ATCC 27853, > 128 µg/mL; in the test with A. baumannii ATCC 19606 it was 8 to 16 µg/mL (≈ 13.1 to 26.2 µM); in the test on P. aeruginosa ATCC 35151, < 1 µg/mL; in [2], 8 to 16 µg/mL (≈ 13.1 to 26.2 µM).
On to `O=C(O)c1cccc2c1OB(O)[C@@H](NC(=O)C(NC(=O)N1CCN(CC(F)(F)F)C(=O)C1=O)c1ccc(P(=O)(O)O)cc1)C2` (stereo partly drawn) [Example 4, (3R)-3-(2-(2,3-dioxo-4-(2,2,2-trifluoroethyl)piperazine-1-carboxamido)-2-(4-phosphonophenyl)acetamido)-2-hydroxy-3,4-dihydro-2H-benzo[e][1,2]oxaborinine-8-carboxylic acid], for which the EC50 in [1] is < 10 µM. Also, the MIC with E. coli ATCC 25922 is > 128 µg/mL; in the test on E. coli AG100, > 128 µg/mL; with E. coli 901C, < 1 µg/mL; with E. coli D22, 8 to 16 µg/mL (≈ 12.5 to 24.9 µM); in the test on E. coli AG100A, 8 to 16 µg/mL (≈ 12.5 to 24.9 µM); in the test with K. pneumoniae 848844, > 128 µg/mL. Besides, the MIC is > 128 µg/mL in the test on K. pneumoniae UMM; > 128 µg/mL in the test with K. pneumoniae SI-117; > 128 µg/mL in the test with P. aeruginosa ATCC 27853; > 128 µg/mL in the test with A. baumannii ATCC 19606; 8 to 16 µg/mL (≈ 12.5 to 24.9 µM) in the test with P. aeruginosa ATCC 35151; 32 to 64 µg/mL (≈ 49.8 to 99.7 µM) in [2].
